Data reported in patent US20190076452A1, “THERAPEUTIC COMBINATIONS FOR TREATING NEOPLASIA” (MEDIMMUNE LIMITED, priority 2014, published 2019).

Key:
[1] = test system: CT26 tumors; assay: Established CT26 tumors in immunocompetent Balb/C mice; assay type: in vivo; conditions: maximally tolerated doses, tumors approximately 200 mm^3, immunocompetent mice
Method: (§1) FIG. 4A is a graph showing tumor volume in CT26 tumor-bearing athymic nude mice dosed with Doxil (5 mg/kg) or Doxorubicin (5 mg/kg) as indicated. FIG. 4B is a graph showing tumor volume in CT26 tumor-bearing Balb/C mice dosed with Doxil (5 mg/kg) or Doxorubicin (5 mg/kg) as indicated. FIG. 4C is a graph showing tumor volume in CT26 tumor-bearing athymic nude mice dosed with gemcitabine (75 mg/kg) as indicated. FIG. 4D is a graph showing tumor volume in CT26 tumor-bearing Balb/C mice dosed with gemcitabine (75 mg/kg) as indicated. FIG. 4E is a graph showing tumor volume in CT26 tumor-bearing athymic nude mice dosed with oxiplatin (8 mg/kg) as indicated. FIG. 4F is a graph showing tumor volume in CT26 tumor-bearing Balb/C mice dosed with oxiplatin (8 mg/kg) as indicated. Arrows indicate dose administration.
A CT26 model was used in several studies. CT26 cells are murine colon cancer cells. CT26 cells were obtained from the ATCC (Manassas, Va.), and were grown with RPMI supplemented with 10% fetal bovine serum. Following receipt, cell lines were re-authenticated using STR-based DNA profiling and multiplex PCR (IDEXX Bioresearch, Columbia, Mo.). Cells were grown in monolayer culture, harvested by trypsinizatin, and implanted subcutaneously into the right flank of 6-8 week old female Balb/C (CT26), C57/Bl6 (MCA205), or 4-6 week athymic female nude mice (Harlan, Indianapolis, Ind.). For the CT26 tumor model, 5×10^5 cells were implanted in the right flank using a 26-gauge needle. […] The number of animals per group ranged from between 10-12 animals per group as determined based on sample size calculations using nQuery software. Both tumor and body weight measurements were collected twice weekly and tumor volume calculated using the equation (L×W^2)/2, where L and W refers to the length and width dimensions, respectively. Error bars were calculated as standard error of the mean. The general health of mice was monitored daily and all experiments were conducted in accordance to AAALAC and MedImmune IACUC guidelines for humane treatment and care of laboratory animals.

[2] = test system: CT26 cells; assay: CT26 tumor model, preventative treatment before measurable tumor; assay type: in vivo, Balb/C mice
Method: A CT26 model was used in several studies. CT26 cells are murine colon cancer cells. CT26 cells were obtained from the ATCC (Manassas, Va.), and were grown with RPMI supplemented with 10% fetal bovine serum. Following receipt, cell lines were re-authenticated using STR-based DNA profiling and multiplex PCR (IDEXX Bioresearch, Columbia, Mo.). Cells were grown in monolayer culture, harvested by trypsinizatin, and implanted subcutaneously into the right flank of 6-8 week old female Balb/C (CT26), C57/Bl6 (MCA205), or 4-6 week athymic female nude mice (Harlan, Indianapolis, Ind.). For the CT26 tumor model, 5×10^5 cells were implanted in the right flank using a 26-gauge needle. Antibodies were obtained from Anti-PD-1 (RMP1-14), anti-PD-L1 (10F.9G2), anti-CTLA-4 (9D9), and mouse IgG2b control (MPC-11). Mouse OX40 fusion protein (OX40 FP) and Rat IgG2a isotype control antibodies were produced by MedImmune (Gaithersburg, Md.). All antibodies and OX40 FP were dosed via intraperitoneal injection. Doxil (Bluedoor Pharma, Rockville, Md.) and doxorubicin (Henry Schein, Melville, N.Y.) were dosed via intravenous administration. In some studies, isotype controls were administered to mice as a cocktail of rat IgG2a and mouse IgG2b. At the beginning of treatment, mice were either randomized by tumor volume (established-tumor studies) or by body weight (preventative studies). The number of animals per group ranged from between 10-12 animals per group as determined based on sample size calculations using nQuery software. Both tumor and body weight measurements were collected twice weekly and tumor volume calculated using the equation (L×W^2)/2, where L and W refers to the length and width dimensions, respectively. Error bars were calculated as standard error of the mean. The general health of mice was monitored daily and all experiments were conducted in accordance to AAALAC and MedImmune IACUC guidelines for humane treatment and care of laboratory animals.

[3] = test system: CT26 tumors; assay: Established CT26 tumors in T cell-deficient athymic nude mice; assay type: in vivo; conditions: maximally tolerated doses, tumors approximately 200 mm^3, immunodeficient mice
Method: as §1, with “FIG. 4F is a graph showing tumor volume in CT26 tumor-bearing Balb/C mice dosed with oxiplatin (8 mg/kg) as indicated. Arrows indicate dose administration.” left out
(§2) A CT26 model was used in several studies. […] The number of animals per group ranged from between 10-12 animals per group as determined based on sample size calculations using nQuery software. Both tumor and body weight measurements were collected twice weekly and tumor volume calculated using the equation (L×W^2)/2, where L and W refers to the length and width dimensions, respectively. Error bars were calculated as standard error of the mean. The general health of mice was monitored daily and all experiments were conducted in accordance to AAALAC and MedImmune IACUC guidelines for humane treatment and care of laboratory animals.

[4] = test system: xenograft model; conditions: T-cell dependent mechanism; cited from earlier work
[5] = test system: CT26 tumors; assay: Established CT26 tumor model, Doxil combined with immunotherapies; assay type: in vivo, Balb/C mice; conditions: maximally efficacious doses
Excerpt: FIGS. 5A-5L show synergistic anti-tumor responses of Doxil in combination with multiple immunotherapies in an established CT26 tumor model. FIG. 5A is a graph depicting tumor volume in untreated mice. FIG. 5B is a graph depicting tumor volume in mice administered Doxil. FIG. 5C is a graph depicting tumor volume in mice administered OX40L fusion protein (FP). FIG. 5D is a graph depicting tumor volume in mice administered α-PD-1. FIG. 5E is a graph depicting tumor volume in mice administered α-PD-L1. FIG. 5F is a graph depicting tumor volume in mice administered α-CTLA-4. FIG. 5G is a graph depicting tumor volume in mice administered GITR ligand fusion protein (GITRL FP). FIG. 5H is a graph depicting tumor volume in mice administered Doxil+OX40L FP. […]
as §2, with “animals. […]” for “animals.”

[6] = test system: MCA205 tumors; assay: Established MCA205 syngeneic tumor model; assay type: in vivo, C57/Bl6 mice; conditions: maximally efficacious doses
Excerpt: FIGS. 7A-7L show synergistic anti-tumor responses of Doxil in combination with α-PD-1, α-PD-L1 and α-CTLA-4 antibodies in the MCA205 syngeneic model. FIG. 7A is a graph depicting tumor volume in untreated mice. FIG. 7B is a graph depicting tumor volume in mice administered Doxil. FIG. 7C is a graph depicting tumor volume in mice administered OX40L fusion protein (FP). FIG. 7D is a graph depicting tumor volume in mice administered α-PD-1. FIG. 7E is a graph depicting tumor volume in mice administered α-PD-L1. FIG. 7F is a graph depicting tumor volume in mice administered α-CTLA-4. FIG. 7G is a graph depicting tumor volume in mice administered GITR ligand fusion protein (GITRL FP). […]
As CT26 is highly sensitive to immunotherapies, it was determined whether Doxil could enhance the activity of immunotherapies in a less sensitive model, MCA205. […]
MCA205 cells were obtained from Agonox (Portland, Oreg.) and grown in RPMI supplemented with 10% fetal bovine serum. […] The number of animals per group ranged from between 10-12 animals per group as determined based on sample size calculations using nQuery software. Both tumor and body weight measurements were collected twice weekly and tumor volume calculated using the equation (L×W^2)/2, where L and W refers to the length and width dimensions, respectively. Error bars were calculated as standard error of the mean. […]

COc1cccc2c1C(=O)c1c(O)c3c(c(O)c1C2=O)C[C@@](O)(C(=O)CO)C[C@@H]3O[C@H]1C[C@H](N)[C@H](O)[C@H](C)O1 [Doxorubicin, doxorubicin]
anti-tumor activity [1]: did not elicit anti-tumor activity
No. of CRs ([2]; 1 mg/kg): 0/10
No. of CRs ([2]; 4 mg/kg): 2/10
number of complete responders ([2]; doxorubicin 4 mg/kg alone or combined with antibody): 2 animals
anti-tumor activity [3]: did not elicit anti-tumor activity

O=C1[O][Pt]2([NH][C@@H]3CCCC[C@H]3[NH]2)[O]C1=O [Oxaliplatin]
anti-tumor activity [1]: increased antitumor activity

Nc1ccn([C@@H]2O[C@H](CO)[C@@H](O)C2(F)F)c(=O)n1 [gemcitabine]
anti-tumor activity [1]: significant anti-tumor activity
anti-tumor activity [3]: significant anti-tumor activity

B1: MEDI4736: human monoclonal antibody directed against human PD-L1 (antibody, V domains shown)
VH: EVQLVESGGGLVQPGGSLRLSCAASGFTFSRYWMSWVRQAPGKGLEWVANIKQDGSEKYYVDSVKGRFTISRDNAKNSLYLQMNSLRAEDTAVYYCAREGGWFGELAFDYWGQGTLVTVSS
VL: EIVLTQSPGTLSLSPGERATLSCRASQRVSSSYLAWYQQKPGQAPRLLIYDASSRATGIPDRFSGSGSGTDFTLTISRLEPEDFAVYYCQQYGSLPWTFGQGTKVEIK
tumor growth [4]: inhibits tumor growth

B2: OX40 FP: mouse OX40 fusion protein produced by MedImmune (protein)
chain: SSSPAKDPPIQRLRGAVTRCEDGQLFISSYKNEYQTMEVQNNSVVIKCDGLYIIYLKGSFFQEVKIDLHFREDHNPISIPMLNDGRRIVFTVVASLAFKDKVYLTVNAPDTLCEHLQINDGELIVVQLTPGYCAPEGSYHSTVNQVPL
modifications: left off: a dimerising Fc or GST
notes: mouse OX40 fusion protein produced by MedImmune
anti-tumor activity ([5]; tumors 200-300 mm^3): low to moderate activity
complete responders ([5]; tumors 200-300 mm^3, out of 12 mice): a few
anti-tumor activity ([6]; tumors 100-150 mm^3): minimally active
complete response ([6]; tumors 100-150 mm^3, out of 12 mice): one
